Columns and labels:
NB cell lines = experiment: Colony formation assays of NB cells with EP300/CBP inhibitors; assay type: cell-based, human; conditions: multiple NB cell lines (Kelly, BE2C, NB69, NGP); compared with C646 and CBP30
Procedure: (§1) Cells were infected with lentiviruses encoding sgRNAs or treated with compounds as described. Colony assays were performed by replating cells at 500 cells per well in 6-well dishes and grown in regular growth media for 10 d before 100% methanol fixation, 0.05% crystal violet staining, and quantitation. Experiments were completed in triplicate; data shown are the average of three independent experiments. Cell Titer-Glo® assay was performed as per the manufacturer's instructions (Promega®). Briefly, 1000 cells/well were plated into 96-well plates and treated with a range of compound dosing. Cell viability was measured at the noted time points based on luminescence by the Cell Titer-Glo® assay (Promega®) and read on an Envision 2104 (PerkinElmer®, USA) according to the manufacturer's protocol.

His-tagged CRBN = His-tagged CRBN (Homo sapiens, UniProt Q96SW2); experiment: AlphaLISA assay with biotinylated pomalidomide and His-tagged CRBN; assay type: binding; conditions: competition with biotinylated pomalidomide
Procedure: To determine whether JQAD1 interacts with the E3 ligase receptor CRBN, the AlphaLISA® platform was used to perform AlphaLISA® fluorescent assays using biotinylated pomalidomide bound to beads and His-tagged CRBN (Yasgar et al. Methods Mol. Biol. 1439:77-98 (2016)). […] Next, biotinylated JQAD1 (Biotin-JQAD1, Scheme 2) was synthesized and incubated with Kelly cell lysates, followed by streptavidin-based purification. […] PROTAC®s may acquire preferential specificity for one of two possible target enzymes due to restricted three-dimensional interactions, as noted in Burslem and Crews, Cell 181:102-14 (2020).
Assays were performed with minimal modifications from the manufacturer's protocol (PerkinElmer®, USA). Briefly, a 2× solution of components with final concentrations of CRBN-DDB1 at 50 nM, Ni-coated Acceptor Beads at 20 μg/ml, and 15 nM biotinylated-pomalidomide were added in […] to 384-well plates (AlphaPlate-384, PerkinElmer®, USA). 100 nL of compound in DMSO from stock plates were added by pin transfer using a Janus Workstation (PerkinElmer®, USA). Streptavidin-coated donor beads (20 μg/ml final) were added to the solution, followed by incubation at room temperature for 1 hour, and reading on an Envision 2104 (PerkinElmer®, USA), by the manufacturer's protocol.

H3K27ac = experiment: Western blotting of H3K27ac in treated NB cells; assay type: cell-based, human
Procedure: (§2) Cells growing in culture were lysed for whole cell lysates as described in Durbin et al. Nat. Genet. 50:1240-1246 (2018) and Wang et al. Nat. Commun. 10:5622 (2019). Nuclear lysates were prepared using the NE-PER® nuclear lysate kit (Thermo Scientific™) according to the manufacturer's protocol. Chromatin lysates were prepared with the total histone extraction kit (Epigentek). Briefly, equivalent amounts of protein were resolved by western blotting using 4-12% Bis-Tris NuPAGE™ gels (Thermo-Fisher Scientific) prior to transfer, and immunoblotting using primary antibodies to: MYCN (1:1000, Cell Signaling Technology®), H3K27ac (1:1000, Abcam), total H3 (1:1000, Cell Signaling Technology®), EP300 (1:1000, Abcam), CBP (1:500, Cell Signaling Technology®), Cas9 (1:1000, Cell Signaling Technology®), cleaved-PARP1 (1:1000, Cell Signaling Technology), cleaved Caspase-3 (1:1000, Cell Signaling Technology®), β-actin (1:1000, Cell Signaling Technology®), GATA3 (1:1000, EMD Millipore™), TFAP2β (1:1000, Cell Signaling Technology®), Vinculin (1:1000, EMD Millipore™), CRBN (1:1000, Cell Signaling Technology®), HAND2 (1:1000, Santa Cruz Biotechnology). Secondary antibodies were horseradish peroxidase (HRP)-conjugated anti-rabbit or anti-mouse (1:5000, Santa Cruz Biotechnology), incubated prior to exposure to enhanced chemiluminescence reagents (GE, Amersham). For immunoprecipitation, equal amounts of protein were diluted in buffer C as described in Mansour et al. Science 346:1373-1377 (2014) and incubated with antibodies covalently conjugated to Dynabeads™ M-270 beads (Thermo-Fisher Scientific) overnight according to the manufacturer's directions. Antibodies used included: H3K27ac, EP300 (Abcam), CBP, TFAP2β (Cell Signaling Technology®), rabbit immunoglobulin G (IgG) (Santa Cruz Biotechnology®). Immunoprecipitated protein was isolated as per the manufacturer's directions and subjected to western blotting, as described above, or mass spectrometry.

[1] = test system: Kelly, NGP and BE2C NB cells; experiment: Propidium iodide DNA flow cytometry (cell cycle, sub-G1); assay type: cell-based, human
Procedure: Cells were infected with lentiviruses encoding single guide RNAs (sgRNAs) or treated with compounds as described for the noted length of time. Cells were then liberated from adhesion to the plate using a sterile spatula (Coming®) followed by centrifugation, aspiration of media, and resuspension in hypotonic citrate-propidium iodide (PI) solution for 30 minutes at 37° C. (Tate et al. Cytometry 4:211-215 (1983)). Nuclei were stabilized using 5M NaCl prior to analysis on a FACSAria™ II (BD Biosciences). Analysis of cell cycle phases was performed using FlowJo® v10.7 (BD Biosciences).

[2] = test system: cleaved caspase-3 and cleaved PARP1; experiment: Western blotting of apoptosis markers; assay type: cell-based, human
Procedure: as §2

MYCN = experiment: Western blotting of MYCN (whole lysates and chromatin extracts); assay type: cell-based, human
Procedure: as §2

[3] = test system: pro- and anti-apoptotic mRNA transcripts; experiment: ERCC spike-in RNA-seq of treated Kelly cells; assay type: cell-based, human; conditions: 500 nM, 24 h
Procedure: For in vitro analyses, total RNA was extracted from control […] or JQAD1 treated Kelly cells using TRIzolTM reagent (Ambion). Prior to extraction, exogenous spike-in of synthetic External RNA Control Consortium (ERCC) RNA controls were added based on cell number (Ambion). Samples were treated with RNAse-free DNAse I and spin purified using the Qiagen® RNeasy Kit (Qiagen®). Purified RNA samples were subjected to library construction with poly-adenylation preparation and sequencing using the Illumina NextSeq® 500 (paired end, 75bp reads). RNA-seq reads were aligned to a reference index containing the sequences of the hg19 revision of the human reference genome and the ERCC spike-in probes using hisat 2.1.0. Expression was quantified using sorted BAMs, a gene reference built using ERCC sizes and RefSeq genes downloaded Jul. 15, 2017, and htseq-count with parameters -I gene_id- stranded=reverse -f bam -m intersection-strict. Read counts were converted to transcripts per million (TPM) and used for cell number-normalization. The expression of all RefSeq genes and ERCC probes was floored at 0.01 and a pseudocount of 0.1 was added to all entries. Values were normalized by equilibrating the expression of the ERCC probes among experiments using normalize.loess from the affy R package. The ERCC-normalized expression of each gene after 24 h of either […] or JQAD1 treatment was compared against its expression in dimethyl sulfoxide (DMSO) treated samples to create two-fold changes.

[4] = test system: Kelly-Cas9 control or CRBN knockout cells; experiment: CellTiter-Glo assay of Kelly-Cas9 control or CRBN knockout cells; assay type: cell-based, human; conditions: range of doses, seven days
Procedure: as §1
sgRNAs targeting individual genes were subcloned by standard methodologies within pLKO.5-EFGP. Kelly, SIMA, BE2C, and NGP cells were infected with lenticas9 followed by blasticidin selection. Stable expression of cas9 was established by western blotting of protein lysates using cas9 antibody (Cell Signaling Technology®). Following infection of pLKO.5-EGFP-sgRNA lentivirus, cells were cultured for the identified times prior to evaluation. BE2C cells were infected with pLC-zsgreen or pLC-CRBN lentiviruses and selected using 500 μg/mL hygromycin (Invitrogen™)

[5] = BE2C 1 μM, Kelly 500 nM, seven days

His-tagged CRBN, sequence (Q96SW2 whole entry): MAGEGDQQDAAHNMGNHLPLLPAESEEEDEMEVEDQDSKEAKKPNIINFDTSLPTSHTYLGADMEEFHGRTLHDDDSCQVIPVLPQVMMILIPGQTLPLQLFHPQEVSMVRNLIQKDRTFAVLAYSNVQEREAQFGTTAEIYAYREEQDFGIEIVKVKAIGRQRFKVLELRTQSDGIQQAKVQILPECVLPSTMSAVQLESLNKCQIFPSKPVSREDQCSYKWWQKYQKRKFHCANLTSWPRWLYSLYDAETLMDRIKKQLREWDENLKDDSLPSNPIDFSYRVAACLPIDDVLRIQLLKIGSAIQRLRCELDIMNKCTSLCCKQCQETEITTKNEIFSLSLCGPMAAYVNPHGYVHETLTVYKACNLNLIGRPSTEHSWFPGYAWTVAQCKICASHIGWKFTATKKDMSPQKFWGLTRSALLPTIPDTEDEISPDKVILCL
His-tagged CRBN, sequence (Q16531 whole entry partner): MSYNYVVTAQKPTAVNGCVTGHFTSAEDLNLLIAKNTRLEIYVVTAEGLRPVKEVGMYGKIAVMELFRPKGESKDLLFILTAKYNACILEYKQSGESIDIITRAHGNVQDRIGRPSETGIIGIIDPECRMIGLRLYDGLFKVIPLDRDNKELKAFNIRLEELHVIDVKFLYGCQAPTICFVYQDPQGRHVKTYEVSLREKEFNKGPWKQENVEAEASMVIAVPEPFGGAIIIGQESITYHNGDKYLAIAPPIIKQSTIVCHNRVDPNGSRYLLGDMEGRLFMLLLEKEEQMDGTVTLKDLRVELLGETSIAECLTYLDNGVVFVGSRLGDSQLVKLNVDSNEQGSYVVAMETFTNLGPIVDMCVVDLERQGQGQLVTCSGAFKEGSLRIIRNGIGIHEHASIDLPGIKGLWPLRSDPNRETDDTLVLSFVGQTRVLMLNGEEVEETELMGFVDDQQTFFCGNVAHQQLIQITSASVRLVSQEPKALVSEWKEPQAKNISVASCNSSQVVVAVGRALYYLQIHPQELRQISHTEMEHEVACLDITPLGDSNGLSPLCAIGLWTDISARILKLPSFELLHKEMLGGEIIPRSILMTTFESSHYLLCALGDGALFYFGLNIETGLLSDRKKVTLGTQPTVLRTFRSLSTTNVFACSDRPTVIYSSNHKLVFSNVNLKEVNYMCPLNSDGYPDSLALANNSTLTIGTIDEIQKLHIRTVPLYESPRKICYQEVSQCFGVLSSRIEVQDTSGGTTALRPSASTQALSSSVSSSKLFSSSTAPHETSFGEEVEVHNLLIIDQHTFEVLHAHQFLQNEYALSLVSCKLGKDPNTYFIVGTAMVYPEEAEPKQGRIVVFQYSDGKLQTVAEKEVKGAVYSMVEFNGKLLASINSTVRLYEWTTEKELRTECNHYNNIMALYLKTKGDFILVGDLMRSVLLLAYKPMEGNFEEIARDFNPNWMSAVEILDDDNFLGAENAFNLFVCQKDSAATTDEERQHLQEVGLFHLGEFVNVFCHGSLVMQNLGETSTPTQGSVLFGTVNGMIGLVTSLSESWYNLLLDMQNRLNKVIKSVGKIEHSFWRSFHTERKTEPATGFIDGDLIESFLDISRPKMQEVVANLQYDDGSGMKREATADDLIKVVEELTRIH

SMILES | reduction of neuroblastoma colony formation (NB cell lines) | interaction with CRBN (His-tagged CRBN) | H3K27Ac modification after prolonged treatment (H3K27ac; [5]) | H3K27ac modification (H3K27ac; Kelly cells, 24 h) | cell cycle effect ([1]; BE2C, Kelly, NGP cells, within 24 hours) | cell cycle / subG1 effect ([1]; Kelly and NGP cells) | cleaved caspase 3 and PARP1 after prolonged treatment [2, 5] | apoptosis: cleavage of caspase-3 and PARP1 ([2]; Kelly (1 μM) and NGP (2.5 μM) cells, 12-36 h) | MYCN expression after prolonged treatment (MYCN; [5]) | chromatin-bound MYCN (MYCN; Kelly cells, 0.5 and 1 μM, 24 h, chromatin extracts) | transcript levels of BIM, BID, PUMA, BAX, BCL2 and MCL1 [3] | growth of CRBN-knockout Kelly cells [4] | growth of control-edited Kelly cells [4]
CNC(=O)Nc1ccc2c(c1)CC[C@@]21OC(=O)N(CC(=O)N(Cc2ccc(F)cc2)[C@@H](C)C(F)(F)F)C1=O [A485] | most potent compound in reducing neuroblastoma colony formation | did not | global loss of the H3K27Ac modification | loss of H3K27ac | G1 cell cycle arrest | G1 cell cycle arrest | induction of cleaved caspase 3 and poly [ADP-ribose] polymerase 1 (PARP1) | little effect on these parameters | loss of MYCN expression | did not show MYCN loss from chromatin extracts up to 1.0 μM | unaffected | equivalently inhibited the growth of both CRBN-knockout cells and controls | equivalently inhibited the growth of both CRBN-knockout cells and controls
Nc1cccc2c1C(=O)N(C1CCC(=O)NC1=O)C2=O (centres unmarked) [pomalidomide] | – | efficiently interacted with CRBN | – | – | – | – | – | – | – | – | – | – | –

Source: patent US20240156800A1, “EP300 DEGRADER AND USES THEREOF IN NEUROBLASTOMA” (DANA-FARBER CANCER INSTITUTE, INC., priority 2021, published 2024)
